# Literature values, collected in patent publication US11419915B2, “Compositions and methods for the treatment of malnutrition” (VitalneXt B.V., priority 2015, dated 2022).
# Conditions: dose of 80 mg/kg bodyweight ursolic acid from an ethanolic extract of Sambucus chinensis; rat plasma
smiles,measurement,value
"C[C@H]1[C@H](C)CC[C@]2(C(=O)O)CC[C@]3(C)C(=CC[C@@H]4[C@@]5(C)CC[C@H](O)C(C)(C)[C@@H]5CC[C@]43C)[C@H]12 [ursolic acid, 3-beta-3-hydroxy-urs-12-ene-28-oic-acid]",oral bioavailability,0.6%
